# Assay results published in PubChem BioAssay (NCI).
#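 These data come from cells grown in 96-well plates and exposed to compound for 48 hours at five concentrations. GI50 = concentration required for 50% inhibition of growth. TGI denotes the concentration required for complete inhibition of growth.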
# Experiments:
# Assay in all cases: growth of human tumour cells (NCI), 48 h
# [1] = system: 786-0 renal
# [2] = system: A498 renal
# [3] = system: A549 NSCLC
# [4] = system: BT-549 breast
# [5] = system: CAKI-1 renal
# [6] = system: CCRF-CEM leukemia
# [7] = system: COLO 205 colon
# [8] = system: DU-145 prostate
# [9] = system: EKVX NSCLC
# [10] = system: HCC-2998 colon
# [11] = system: HCT-116 colon
# [12] = system: HCT-15 colon
# [13] = system: HOP-62 NSCLC
# [14] = system: HOP-92 NSCLC
# [15] = system: HS 578T breast
# [16] = system: HT29 colon
# [17] = system: IGROV1 ovarian
# [18] = system: K-562 leukemia
# [19] = system: LOX IMVI melanoma
# [20] = system: M14 melanoma
# [21] = system: MCF7 breast
# [22] = system: MDA-MB-231 breast
# [23] = system: MDA-MB-435
# [24] = system: MOLT-4 leukemia
# [25] = system: NCI-H226 lung
# [26] = system: NCI-H23 lung
# [27] = system: NCI-H460 lung
# [28] = system: NCI-H522 lung
# [29] = system: NCI/ADR-RES ovarian
# [30] = system: OVCAR-3 ovarian
# [31] = system: OVCAR-4 ovarian
# [32] = system: OVCAR-5 ovarian
# [33] = system: OVCAR-8 ovarian
# [34] = system: PC-3 prostate
# [35] = system: RPMI-8226 leukemia
# [36] = system: RXF 393 renal
# [37] = system: SF-268 CNS
# [38] = system: SF-295 CNS
# [39] = system: SF-539 CNS
# [40] = system: SK-MEL-2 melanoma
# [41] = system: SK-MEL-28 melanoma
# [42] = system: SK-MEL-5 melanoma
# [43] = system: SK-OV-3 ovarian
# [44] = system: SN12C renal
# [45] = system: SNB-19 CNS
# [46] = system: SNB-75 CNS
# [47] = system: SW-620 colon
# [48] = system: T-47D breast
# [49] = system: U251 CNS
# [50] = system: UACC-257 melanoma
# [51] = system: UACC-62 melanoma
# [52] = system: UO-31 renal
# [53] = system: ACHN renal
# [54] = system: HL-60(TB) leukemia
# [55] = system: KM12 colon
# [56] = system: MALME-3M melanoma
# [57] = system: TK-10 renal
smiles,measurement,setting,value
COc1cccc(NC(=O)c2ccc(C(F)(F)F)nc2Nc2ccc(Cl)cc2C)c1,GI50,[1],14.7 µM
same,TGI,[1],31.4 µM
same,GI50,[2],1.65 µM
same,TGI,[2],11.9 µM
same,GI50,[3],10.6 µM
same,TGI,[3],22.4 µM
same,GI50,[4],14.1 µM
same,TGI,[4],28.4 µM
same,GI50,[5],2760 nM
same,TGI,[5],17.1 µM
same,GI50,[6],11.1 µM
same,TGI,[6],34.4 µM
same,GI50,[7],10.4 µM
same,TGI,[7],25.8 µM
same,GI50,[8],15 µM
same,TGI,[8],28.3 µM
same,GI50,[9],10.2 µM
same,TGI,[9],24.2 µM
same,GI50,[10],2.9 µM
same,TGI,[10],18.7 µM
same,GI50,[11],10.9 µM
same,TGI,[11],22.9 µM
same,GI50,[12],11 µM
same,TGI,[12],22.9 µM
same,GI50,[13],17.4 µM
same,TGI,[13],32.1 µM
same,GI50,[14],4.76 µM
same,TGI,[14],21.4 µM
same,GI50,[15],6.56 µM
same,TGI,[15],29.3 µM
same,GI50,[16],10.2 µM
same,TGI,[16],22.1 µM
same,GI50,[17],10.5 µM
same,TGI,[17],22.2 µM
same,GI50,[18],13.9 µM
same,TGI,[18],38.8 µM
same,GI50,[19],11.3 µM
same,TGI,[19],23.4 µM
same,GI50,[20],16.9 µM
same,TGI,[20],32.5 µM
same,GI50,[21],7.96 µM
same,TGI,[21],47.7 µM
same,GI50,[22],10.4 µM
same,TGI,[22],23.3 µM
same,GI50,[23],12.1 µM
same,TGI,[23],27.2 µM
same,GI50,[24],10.2 µM
same,TGI,[24],51 µM
same,GI50,[25],14.7 µM
same,TGI,[25],34.8 µM
same,GI50,[26],6.45 µM
same,TGI,[26],20 µM
same,GI50,[27],9.01 µM
same,TGI,[27],24.1 µM
same,GI50,[28],1280 nM
same,TGI,[28],7.18 µM
same,GI50,[29],5.6 µM
same,TGI,[29],20.2 µM
same,GI50,[30],4.69 µM
same,TGI,[30],19.9 µM
same,GI50,[31],14.9 µM
same,TGI,[31],28.6 µM
same,GI50,[32],2.51 µM
same,TGI,[32],20 µM
same,GI50,[33],11.8 µM
same,TGI,[33],24.1 µM
same,GI50,[34],4.36 µM
same,TGI,[34],17.9 µM
same,GI50,[35],5.54 µM
same,TGI,[35],28.4 µM
same,GI50,[36],1170 nM
same,TGI,[36],15.4 µM
same,GI50,[37],13.8 µM
same,TGI,[37],32.6 µM
same,GI50,[38],12.4 µM
same,TGI,[38],28.6 µM
same,GI50,[39],15.1 µM
same,TGI,[39],30.5 µM
same,GI50,[40],10.3 µM
same,TGI,[40],21.9 µM
same,GI50,[41],15 µM
same,TGI,[41],28.8 µM
same,GI50,[42],14.6 µM
same,TGI,[42],27.8 µM
same,GI50,[43],13.4 µM
same,TGI,[43],27.8 µM
same,GI50,[44],12.4 µM
same,TGI,[44],25.7 µM
same,GI50,[45],13.8 µM
same,TGI,[45],28.7 µM
same,GI50,[46],12.3 µM
same,TGI,[46],25.5 µM
same,GI50,[47],14.5 µM
same,TGI,[47],28.7 µM
same,GI50,[48],4.31 µM
same,TGI,[48],25.1 µM
same,GI50,[49],11.9 µM
same,TGI,[49],24.2 µM
same,GI50,[50],13.4 µM
same,TGI,[50],26.2 µM
same,GI50,[51],14.2 µM
same,TGI,[51],27.2 µM
same,GI50,[52],1.45 µM
same,TGI,[52],8.29 µM
O=C1c2ccccc2C(=O)c2c1c(NCCNCCO)c1cc[nH]c1c2NCCNCCO,GI50,[1],3.87 µM
same,TGI,[1],> 36.7 µM
same,GI50,[2],8.09 µM
same,TGI,[2],32.9 µM
same,GI50,[3],5.46 µM
same,TGI,[3],27.2 µM
same,GI50,[53],9.96 µM
same,TGI,[53],> 100 µM
same,GI50,[4],2.75 µM
same,TGI,[4],8.94 µM
same,GI50,[5],> 47100 nM
same,TGI,[5],> 100 µM
same,GI50,[6],1.04 µM
same,GI50,[7],2.48 µM
same,TGI,[7],> 33.3 µM
same,GI50,[8],3.31 µM
same,TGI,[8],> 59 µM
same,GI50,[9],4.65 µM
same,TGI,[9],25.5 µM
same,GI50,[10],3.18 µM
same,TGI,[10],17.2 µM
same,GI50,[11],1.27 µM
same,TGI,[11],> 21.5 µM
same,GI50,[12],> 70.9 µM
same,TGI,[12],> 100 µM
same,GI50,[54],2900 nM
same,TGI,[54],> 21 µM
same,GI50,[13],2.6 µM
same,TGI,[13],> 22.2 µM
same,GI50,[14],3.06 µM
same,TGI,[14],16.5 µM
same,GI50,[15],1.93 µM
same,TGI,[15],11.1 µM
same,GI50,[16],2.78 µM
same,TGI,[16],> 41.4 µM
same,GI50,[17],9.23 µM
same,TGI,[17],> 100 µM
same,GI50,[18],1.63 µM
same,GI50,[55],4.34 µM
same,TGI,[55],> 39.9 µM
same,GI50,[19],1.53 µM
same,TGI,[19],> 100 µM
same,GI50,[20],7.27 µM
same,TGI,[20],> 55.1 µM
same,GI50,[56],1800 nM
same,TGI,[56],5.16 µM
same,GI50,[21],1.35 µM
same,GI50,[22],4.15 µM
same,TGI,[22],18.9 µM
same,GI50,[23],3.03 µM
same,TGI,[23],11.9 µM
same,GI50,[24],1.28 µM
same,GI50,[25],1.78 µM
same,TGI,[25],13.5 µM
same,GI50,[26],7.9 µM
same,TGI,[26],> 27.9 µM
same,GI50,[27],7.78 µM
same,TGI,[27],> 60.1 µM
same,GI50,[28],2320 nM
same,TGI,[28],> 35.8 µM
same,GI50,[29],> 100 µM
same,TGI,[29],> 100 µM
same,GI50,[30],3.57 µM
same,TGI,[30],> 26.1 µM
same,GI50,[31],14.2 µM
same,TGI,[31],45.2 µM
same,GI50,[32],3.96 µM
same,TGI,[32],> 31.3 µM
same,GI50,[33],2.42 µM
same,TGI,[33],40.5 µM
same,GI50,[34],3.22 µM
same,TGI,[34],> 25.6 µM
same,GI50,[35],13.9 µM
same,TGI,[35],47.8 µM
same,GI50,[36],2590 nM
same,TGI,[36],13.2 µM
same,GI50,[37],0.935 µM
same,TGI,[37],5.28 µM
same,GI50,[38],4.37 µM
same,TGI,[38],43 µM
same,GI50,[39],1.25 µM
same,TGI,[39],14.5 µM
same,GI50,[41],3.27 µM
same,TGI,[41],20.5 µM
same,GI50,[42],3.17 µM
same,TGI,[42],16.4 µM
same,GI50,[43],2.85 µM
same,TGI,[43],13.6 µM
same,GI50,[44],0.354 µM
same,TGI,[44],2.67 µM
same,GI50,[45],1.26 µM
same,TGI,[45],12.9 µM
same,GI50,[46],9.77 µM
same,TGI,[46],> 100 µM
same,GI50,[47],3.28 µM
same,TGI,[47],25.9 µM
same,GI50,[48],11.8 µM
same,TGI,[48],> 46.5 µM
same,GI50,[57],6.04 µM
same,TGI,[57],44.9 µM
same,GI50,[49],0.739 µM
same,TGI,[49],19.7 µM
same,GI50,[50],7.06 µM
same,TGI,[50],29.9 µM
same,GI50,[51],1.48 µM
same,GI50,[52],62.9 µM
same,TGI,[52],> 100 µM
